Our source for the IC50 values is patent US9067934B2, “Bicyclic pyridinones” (Pfizer Inc., priority 2011, dated 2015).

For this experiment, the system named is production of amyloid beta protein Aβ(1-42) (γ-secretase) in human WT-APP overexpressing CHO cells. The experiment in a line: Cell-Based γ-Secretase Assay with ELISA Readout. The following applies: human WT-APP overexpressing CHO cells, ~24 hours at 37° C., Aβ(1-42) ELISA; footnotes: a = geometric mean of >15 determinations, b = single determination, c = geometric mean of 7-15 determinations; read-out: Aβ 42B IC50 (Geometric Mean of 2-6 Determinations). Summed up:
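Human WT-APP-overexpressing CHO cells were pre-cultured 24 h at 37° C, then exposed to compounds (eleven-point half-log series, 1% final DMSO) for ~24 h. Aβ(1-42) in conditioned media was captured with Aβ(1-42)-specific antibody and detected with Eu-labeled 6e10 by DELFIA TRF. IC50 by nonlinear regression against min/max inhibition controls.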
For orientation: ELISA stands for enzyme-linked immunosorbent assay.

By IC50 is commonly meant the concentration needed to halve the response being measured.

A value given as a limit tells only on which side of the number the result lay.

Take `Cc1cn(-c2ccc3n(c2=O)CCN(CCOc2cccc4[nH]c(C(F)(F)F)cc24)C3=O)cn1` [Example 101, 7-(4-methyl-1H-imidazol-1-yl)-2-(2-{[2-(trifluoromethyl)-1H-indol-4-yl]oxy}ethyl)-3,4-dihydro-2H-pyrido[1,2-a]pyrazine-1,6-dione]: the 50% inhibitory concentration (IC50) was determined as 456 nM.

As for `Cc1cn(-c2ccc3n(c2=O)CCN(CCOc2cccc4c2cc(C(F)(F)F)n4C)C3=O)cn1` [Example 102, 7-(4-methyl-1H-imidazol-1-yl)-2-(2-{[1-methyl-2-(trifluoromethyl)-1H-indol-4-yl]oxy}ethyl)-3,4-dihydro-2H-pyrido[1,2-a]pyrazine-1,6-dione], the IC50 was 33.7 nM.

On to `CCC(COc1ccc(F)cc1C(F)(F)F)N1CCn2c(ccc(-n3cnc(C)c3)c2=O)C1=O` (centres unmarked) [Example 103, 2-{1-[4-fluoro-2-(trifluoromethyl)phenoxy]butan-2-yl}-7-(4-methyl-1H-imidazol-1-yl)-3,4-dihydro-2H-pyrido[1,2-a]pyrazine-1,6-dione], for which the IC50 is 596 nM.

As for `Cc1cn(-c2ccc3n(c2=O)CCN(CCOc2ccccc2-c2nc(C(F)(F)F)ns2)C3=O)cn1` [Example 104, 7-(4-methyl-1H-imidazol-1-yl)-2-(2-{2-[3-(trifluoromethyl)-1,2,4-thiadiazol-5-yl]phenoxy}ethyl)-3,4-dihydro-2H-pyrido[1,2-a]pyrazine-1,6-dione], the concentration for half-maximal inhibition (IC50) came to 7.2 nM.

Consider `Cc1cn(-c2ccc3n(c2=O)CCN(CCOc2ccc(F)cc2C(C)(C)C(F)(F)F)C3=O)cn1` [Example 105, 2-{2-[4-fluoro-2-(1,1,1-trifluoro-2-methylpropan-2-yl)phenoxy]ethyl}-7-(4-methyl-1H-imidazol-1-yl)-3,4-dihydro-2H-pyrido[1,2-a]pyrazine-1,6-dione], for which the 50% inhibitory concentration (IC50) was 25.2 nM.

For the compound `Cc1cn(-c2ccc3n(c2=O)CCN(CCOc2ccccc2C24CC(C2)C4)C3=O)cn1` [Example 106, 2-{2-[2-(bicyclo[1.1.1]pent-1-yl)phenoxy]ethyl}-7-(4-methyl-1H-imidazol-1-yl)-3,4-dihydro-2H-pyrido[1,2-a]pyrazine-1,6-dione], the IC50 is 27.4 nM.

For `Cc1cn(-c2ccc3n(c2=O)CCN([C@@H](C)COc2ccc(Cl)cc2C(F)(F)F)C3=O)cn1` [Example 107, 2-{(2S)-1-[4-chloro-2-(trifluoromethyl)phenoxy]propan-2-yl}-7-(4-methyl-1H-imidazol-1-yl)-3,4-dihydro-2H-pyrido[1,2-a]pyrazine-1,6-dione], the concentration for half-maximal inhibition (IC50) came out at 34.4 nM.

`Cc1cn(-c2ccc3n(c2=O)CCN(CCOc2cccc4c2CC(F)(F)C4)C3=O)cn1` [Example 108, 2-{2-[(2,2-difluoro-2,3-dihydro-1H-inden-4-yl)oxy]ethyl}-7-(4-methyl-1H-imidazol-1-yl)-3,4-dihydro-2H-pyrido[1,2-a]pyrazine-1,6-dione]: the IC50 was determined as 46.8 nM.

`Cc1cn(-c2ccc3n(c2=O)CCN(CCOc2cccc4c2OC(F)(F)O4)C3=O)cn1` [Example 109, 2-{2-[(2,2-difluoro-1,3-benzodioxol-4-yl)oxy]ethyl}-7-(4-methyl-1H-imidazol-1-yl)-3,4-dihydro-2H-pyrido[1,2-a]pyrazine-1,6-dione]: the IC50 amounted to 275 nM.

Take `Cc1cn(-c2ccc3n(c2=O)CCN(CCOc2ccc(Cl)cc2C24CC(C2)C4)C3=O)cn1` [Example 110, 2-{2-[2-(bicyclo[1.1.1]pent-1-yl)-4-chlorophenoxy]ethyl}-7-(4-methyl-1H-imidazol-1-yl)-3,4-dihydro-2H-pyrido[1,2-a]pyrazine-1,6-dione]: the IC50 was 14.5 nM.

Regarding `Cc1cn(-c2ccc3n(c2=O)CCCN(CCOc2ccc(Cl)cc2C(F)(F)F)C3=O)cn1` [Example 111, 2-{2-[4-chloro-2-(trifluoromethyl)phenoxy]ethyl}-8-(4-methyl-1H-imidazol-1-yl)-2,3,4,5-tetrahydropyrido[1,2-a][1,4]diazepine-1,7-dione], the IC50 is 138 nM.

Turning to `Cc1cn(-c2ccc3n(c2=O)[C@@H](C)CN(CCOc2ccc(F)cc2C(F)(F)F)C3=O)cn1` [Example 112, (4S)-2-{2-[4-fluoro-2-(trifluoromethyl)phenoxy]ethyl}-4-methyl-7-(4-methyl-1H-imidazol-1-yl)-3,4-dihydro-2H-pyrido[1,2-a]pyrazine-1,6-dione], the IC50 stood at 340 nM.

Take `O=C1c2ccc(-n3cnc(Cl)c3)c(=O)n2CCN1CCOc1ccc(Cl)cc1C(F)(F)F` [Example 113, 7-(4-chloro-1H-imidazol-1-yl)-2-{2-[4-chloro-2-(trifluoromethyl)phenoxy]ethyl}-3,4-dihydro-2H-pyrido[1,2-a]pyrazine-1,6-dione]: the 50% inhibitory concentration (IC50) came to 292 nM.

Turning to `O=C1c2ccc(-n3cnc(Cl)c3)c(=O)n2CCN1CCOc1ccccc1C(F)(F)F` [Example 114, 7-(4-chloro-1H-imidazol-1-yl)-2-{2-[2-(trifluoromethyl)phenoxy]ethyl}-3,4-dihydro-2H-pyrido[1,2-a]pyrazine-1,6-dione], the IC50 worked out at 1320 nM.

Take `Cc1cc(-c2ccc3n(c2=O)CCN(CCOc2cccc4ccc(F)cc24)C3=O)ccn1` [Example 115, 2-{2-[(7-fluoronaphthalen-1-yl)oxy]ethyl}-7-(2-methylpyridin-4-yl)-3,4-dihydro-2H-pyrido[1,2-a]pyrazine-1,6-dione]: the concentration for half-maximal inhibition (IC50) is 489 nM.

With `Cc1cc(-c2ccc3n(c2=O)CCN(CCOc2ccc(Cl)cc2C(F)(F)F)C3=O)ccn1` [Example 116, 2-{2-[4-chloro-2-(trifluoromethyl)phenoxy]ethyl}-7-(2-methylpyridin-4-yl)-3,4-dihydro-2H-pyrido[1,2-a]pyrazine-1,6-dione], the IC50 was 3490 nM.

On to `Cc1cn(-c2ccc3n(c2=O)CCN([C@@H](C)COc2ccc(Cl)cc2C(C)(C)C(F)(F)F)C3=O)cn1` [Example 117, 2-{(2S)-1-[4-Chloro-2-(1,1,1-trifluoro-2-methylpropan-2-yl)phenoxy]propan-2-yl}-7-(4-methyl-1H-imidazol-1-yl)-3,4-dihydro-2H-pyrido[1,2-a]pyrazine-1,6-dione], for which the IC50 came to 3.54 nM.

For `Cc1cn(-c2ccc3n(c2=O)CCN([C@@H](C)COc2ccc(F)cc2[C@@H](C)C(F)(F)F)C3=O)cn1` [Example 118, 2-[(2S)-1-{4-Fluoro-2-[(2R)-1,1,1-trifluoropropan-2-yl]phenoxy}propan-2-yl]-7-(4-methyl-1H-imidazol-1-yl)-3,4-dihydro-2H-pyrido[1,2-a]pyrazine-1,6-dione], the IC50 was < 6.64 nM.

Consider `Cc1cn(-c2ccc3n(c2=O)CCN([C@@H](C)COc2ccc(Cl)cc2S(F)(F)(F)(F)F)C3=O)cn1` [Example 119, 2-{(2S)-1-[4-Chloro-2-(pentafluoro-λ^6-sulfanyl)phenoxy]propan-2-yl}-7-(4-methyl-1H-imidazol-1-yl)-3,4-dihydro-2H-pyrido[1,2-a]pyrazine-1,6-dione], for which the half-maximal inhibitory concentration (IC50) worked out at 7.49 nM.

On to `Cc1cn(-c2ccc3n(c2=O)CCN([C@@H](C)COc2ccccc2S(F)(F)(F)(F)F)C3=O)cn1` [Example 120, 7-(4-methyl-1H-imidazol-1-yl)-2-{(2S)-1-[2-(pentafluoro-λ^6-sulfanyl)phenoxy]propan-2-yl}-3,4-dihydro-2H-pyrido[1,2-a]pyrazine-1,6-dione], for which the IC50 was 17.8 nM.
